Results reported in patent US20070037230A1 (priority 2005, published 2007).

Key:
Assay type in all cases: binding
[1] = test system: biotinylated Bacillus anthracis spores
[2] = test system: Bacillus anthracis spores
[3] = test system: Bacillus anthracis spores; remark: listed apart in the source
[4] = test system: Bacillus subtilis
[5] = test system: Bacillus licheniformis
[6] = test system: Bacillus megaterium
[7] = test system: Bacillus cereus
[8] = test system: Bacillus thuringiensis

| Sequence | binding in the ELISA [1] | binding in the phage-capture assay (percentage recovery, eluted to input phage) [2] | binding of phage to spores in ELISA revealed with monoclonal antibody BD8 [3] | bound to Bacillus anthracis fold better than to Bacillus subtilis [4] [fold] | bound to Bacillus anthracis fold better than to Bacillus licheniformis [5] [fold] | bound to Bacillus anthracis fold better than to Bacillus megaterium [6] [fold] | bound to Bacillus anthracis fold better than to Bacillus cereus [7] [fold] | bound to Bacillus anthracis fold better than to Bacillus thuringiensis [8] [fold] |
| --- | --- | --- | --- | --- | --- | --- | --- | --- |
| VTRNTSAS | high binding | high binding | specific binding | – | – | – | – | – |
| DRTGATLT | – | high binding | – | – | – | – | – | – |
| DARGTTHM | high binding | high binding | – | 25 | 50 | 75 | 3.7 | 2.1 |
| ETRVPHGA | high binding | – | – | 24 | 12 | 24 | 2.4 | 2.2 |
| EPRAPASL | – | high binding | – | – | – | – | – | – |
| EPRLSPHS | high binding | high binding | – | 39 | 70 | 43 | 3.5 | 6.9 |
